According to patent US7368433B2, “Peptides and methods for the control of obesity” (University of Florida Research Foundation, Inc., priority 2002, dated 2008):
Where two headings read alike, the source gives them in different places.

What was measured:
[1] = molecular target: T1, mMC4R (Mus musculus, UniProt P56450); assay: Functional bioassay (CRE/β-galactosidase reporter), agonist activity at mMC4R; format: cell-based; details: HEK-293 cells stably expressing receptor; ± SEM
T1 construct: expressed in transfected cells; host or cells: HEK-293
T1 sequence (P56450 whole entry): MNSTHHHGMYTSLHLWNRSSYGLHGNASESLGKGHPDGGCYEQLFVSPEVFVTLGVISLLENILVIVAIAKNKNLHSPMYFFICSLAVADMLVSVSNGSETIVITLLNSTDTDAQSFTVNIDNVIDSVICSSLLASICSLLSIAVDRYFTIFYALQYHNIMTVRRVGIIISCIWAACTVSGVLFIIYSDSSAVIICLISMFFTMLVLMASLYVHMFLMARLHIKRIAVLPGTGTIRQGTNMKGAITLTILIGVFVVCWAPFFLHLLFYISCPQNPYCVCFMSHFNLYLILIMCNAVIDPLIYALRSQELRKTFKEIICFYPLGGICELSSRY
Procedure: (§1) For cell culture and transfection, briefly, HEK-293 cells were maintained in Dulbecco's modified Eagle's medium (DMEM) with 10% fetal calf serum and seeded 1 day prior to transfection at 1 to 2×10^6 cell/100-mm dish. Melanocortin receptor DNA in the pcDNA3 expression vector (20 μg) were transfected using the calcium phosphate method. Stable receptor populations were generated using G418 selection (1 mg/mL) for subsequent bioassay analysis.
(§2) In the functional bioassay studies, HEK-293 cells stably expressing the melanocortin receptors were transfected with 4 μg CRE/β-galactosidase reporter gene as previously described in the literature. Briefly, 5,000 to 15,000 post transfection cells were plated into 96 well Primera plates (Falcon) and incubated overnight. […] The sample absorbance, OD405, was measured using a 96 well plate reader (Molecular Devices). The relative protein was determined by adding 200 μL 1:5 dilution Bio Rad G250 protein dye:water to the 10 μL cell lysate sample taken previously, and the OD595 was measured on a 96 well plate reader (Molecular Devices). […]
(§3) The pA2 values were generated using the Schild analysis method [Schild, H. O. pA2, A New Scale for the Measurement of Drug Antagonism. […] EC50 and pA2 estimates, and their associated standard errors, were determined by fitting the data to a nonlinear least-squares analysis using the PRISM program (v3.0, GraphPad Inc.).

[2] = molecular target: T2, mMC5R (Mus musculus, UniProt P41149); assay: Functional bioassay (CRE/β-galactosidase reporter), agonist activity at mMC5R; format: cell-based; details: HEK-293 cells stably expressing receptor; ± SEM
T2 construct: expressed in transfected cells; host or cells: HEK-293
T2 sequence (P41149 whole entry): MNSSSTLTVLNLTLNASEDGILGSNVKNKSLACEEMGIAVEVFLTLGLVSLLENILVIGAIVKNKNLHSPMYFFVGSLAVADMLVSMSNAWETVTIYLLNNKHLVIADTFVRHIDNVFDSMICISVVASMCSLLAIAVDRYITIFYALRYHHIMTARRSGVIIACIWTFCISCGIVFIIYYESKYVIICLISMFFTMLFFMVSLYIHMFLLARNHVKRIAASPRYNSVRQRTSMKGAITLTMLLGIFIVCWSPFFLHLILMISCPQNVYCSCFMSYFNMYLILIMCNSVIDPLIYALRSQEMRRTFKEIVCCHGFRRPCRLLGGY
Procedure: as §1, §2, §3

[3] = system: food intake; details: central / ICV administration to rodents, literature, cited from earlier work
[4] = molecular target: T3, human MC4R (Homo sapiens, UniProt P32245); details: literature (Yang et al 2000; Danho et al); read-out: agonist activity at the human MC4 receptor; cited from earlier work
T3 construct: expressed in transfected cells; host or cells: HEK-293
T3 sequence (P32245 whole entry): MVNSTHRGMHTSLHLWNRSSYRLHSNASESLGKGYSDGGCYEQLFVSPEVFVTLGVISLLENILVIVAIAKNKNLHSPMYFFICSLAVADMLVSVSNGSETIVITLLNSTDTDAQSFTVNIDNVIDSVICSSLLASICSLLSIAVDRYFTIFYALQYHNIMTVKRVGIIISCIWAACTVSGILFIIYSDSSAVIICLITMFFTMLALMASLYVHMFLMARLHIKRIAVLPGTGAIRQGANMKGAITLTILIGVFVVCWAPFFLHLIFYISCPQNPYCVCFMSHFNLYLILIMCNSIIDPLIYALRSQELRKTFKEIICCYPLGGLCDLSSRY

[5] = molecular target: hMC3R (Homo sapiens, UniProt P41968); details: literature (Danho et al); cited from earlier work
Sequence of hMC3R (P41968 whole entry): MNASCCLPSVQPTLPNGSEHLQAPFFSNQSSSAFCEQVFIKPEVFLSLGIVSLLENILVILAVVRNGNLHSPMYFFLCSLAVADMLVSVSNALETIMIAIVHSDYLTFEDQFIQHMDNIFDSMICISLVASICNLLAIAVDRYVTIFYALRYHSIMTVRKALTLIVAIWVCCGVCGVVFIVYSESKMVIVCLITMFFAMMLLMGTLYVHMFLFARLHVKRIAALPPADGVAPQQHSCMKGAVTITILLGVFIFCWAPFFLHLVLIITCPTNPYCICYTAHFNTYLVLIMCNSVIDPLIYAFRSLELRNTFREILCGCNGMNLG

Work on `CC(=O)N[C@@H](Cc1c[nH]cn1)C(=O)N[C@H](Cc1ccccc1)C(=O)N[C@@H](CCCNC(=N)N)C(=O)N[C@@H](Cc1c[nH]c2ccccc12)C(N)=O` [JRH279-31, Ac-His-DPhe-Arg-Trp-NH2] yielded an EC50 [1] of 17.2 ± 2.78 nM and an EC50 [2] of 3.96 ± 0.94 nM.

In the case of “Ac-Nle-c[Asp-His-DNal(2′)-Arg-Trp-Lys]-NH2 [SHU91 19]”, the “effect on food intake” value [3] is given as “increased food intake” and the “effect on food intake” value ([3]; listed as SHU-9119) is given as “can induce hyperphagia”.

In the case of “c[Asp-(racemic)Atc-DPhe-Arg-Trp-Lys]-NH2”, the EC50 [4] is listed as 65 nM and the “agonist activity at the hMC3R (in words)” value [5] is listed as “only slight agonist activity”.
